Results published in US4231928A, “Antibacterial agents” (priority 1979, dated 1980).
Values after ≈ are worked out from the molar mass of the structure shown. Read-outs that look alike come from different tables or passages of the source.

Experiments:
Type in all cases: cell-based
P. mirabilis = test: Serial twofold agar dilution (Mueller-Hinton agar), P. mirabilis; conditions: Proteus mirabilis, P. mirabilis A9900; Mueller-Hinton agar; Table 1; read-out: MIC
Description: (§1) The Minimum Inhibitory Concentrations (MIC) for sodium 6-[D-(-)-α-phenyl-α-(7-hydroxy-4-oxo-4H-pyrimido[1,2-b]pyridazin-3-ylcarboxamido)acetamido]penicillanate (BB-P598) and sulbenicillin were determined by the serial twofold agar dilution method using Steers' apparatus on Mueller-Hinton agar plates against 31 test organisms for the primary screening (Table 1) and also against 61 strains of Pseudomonas aeruginosa for the secondary evaluation (Table 2).
(§2) Minimum Inhibitory Concentrations (MIC) for sodium 6-[D-(-)-α-phenyl-α-(7-hydroxy-4-oxo-4H-pyrimido[1,2-b]pyridazin-3-ylcarboxamido)acetamido]pencillanate (BB-P598), sodium 6-[D-(-)-α-(4-hydroxyphenyl)-α-(7-hydroxy-4-oxo-4H-pyrimido[1,2-b]pyridazin-3-ylcarboxamido)acetamido]-penicillanate (BB-P642) and carbenicillin were determined by the serial twofold agar dilution method using Steers' apparatus on Mueller-Hinton agar plates against 31 tests organisms (Table 8) and also against 61 strains of Pseudomonas aeruginosa (Table 9). In terms of mean % relative activity compared with carbenicillin, compounds BB-B598 and BB-P642 were 856% and 1319% as active as carbenicillin against the 61 Pseudomonas strains of Table 9.

E. coli = test: Serial twofold agar dilution (Mueller-Hinton agar), E. coli; conditions: Escherichia coli
Description: as §1, §2

P. vulgaris = test: Serial twofold agar dilution (Mueller-Hinton agar), P. vulgaris; conditions: Proteus vulgaris, P. vulgaris A9539, Table 1, read-out: MIC
Description: as §1, §2

E. cloacae = test: Serial twofold agar dilution (Mueller-Hinton agar), E. cloacae; conditions: Enterobacter cloacae
Description: as §1, §2

Klebsiella sp. = test: Serial twofold agar dilution (Mueller-Hinton agar), Klebsiella sp.
Description: as §1, §2

S. enteritidis = test: Serial twofold agar dilution (Mueller-Hinton agar), S. enteritidis; conditions: Salmonella enterica, S. enteritidis A9531, Table 1, read-out: MIC
Description: as §1, §2

Pseudomonas sp. = test: Serial twofold agar dilution (Mueller-Hinton agar), Pseudomonas sp.; conditions: Pseudomonas sp. A20358, Table 1, read-out: MIC
Description: as §1, §2

S. aureus = test: Serial twofold agar dilution (Mueller-Hinton agar), S. aureus; conditions: Staphylococcus aureus
Description: as §1, §2

K. pneumoniae = test: Serial twofold agar dilution (Mueller-Hinton agar), K. pneumoniae; conditions: Klebsiella pneumoniae, K. pneumoniae A9977, Table 1, read-out: MIC
Description: as §1, §2

Pseudomonas aeruginosa = test: Serial twofold agar dilution (Mueller-Hinton agar), P. aeruginosa; conditions: Pseudomonas aeruginosa
Description: as §1, §2

P. morganii = test: Serial twofold agar dilution (Mueller-Hinton agar), P. morganii; conditions: Morganella morganii, P. morganii A9553, Table 1, read-out: MIC
Description: as §1, §2

S. marcescens = test: Serial twofold agar dilution (Mueller-Hinton agar), S. marcescens; conditions: Serratia marcescens, S. marcescens A20019, Table 1
Description: as §1, §2

## CC1(C)S[C@@H]2[C@H](NC(=O)C(c3ccccc3)S(=O)(=O)O)C(=O)N2[C@H]1C(=O)O (stereo partly shown) [Sulbenicillin, reference compound]
P. mirabilis
  MIC: 0.8 µg/mL (≈ 1.93 µM)
E. coli; E. coli Juhl A9435, Table 1
  MIC: 12.5 µg/mL (≈ 30.2 µM)
E. coli; E. coli Juhl A9844, Table 1, read-out: MIC
  MIC: 0.8 µg/mL (≈ 1.93 µM)
E. coli; E. coli Juhl A15119, Table 1, read-out: MIC
  MIC: 3.1 µg/mL (≈ 7.48 µM)
E. coli; E. coli Juhl A20366, Table 1, read-out: MIC
  MIC: > 100 µg/mL
E. coli; E. coli Juhl A20520, Table 1, read-out: MIC
  MIC: 6.3 µg/mL (≈ 15.2 µM)
E. coli; E. coli Juhl A20664, Table 1, read-out: MIC
  MIC: 3.1 µg/mL (≈ 7.48 µM)
E. coli; E. coli Juhl A20732, Table 1, read-out: MIC
  MIC: > 100 µg/mL
E. coli; E. coli Juhl A20898, Table 1, read-out: MIC
  MIC: > 100 µg/mL
E. coli; E. coli NIHJ, Table 1, read-out: MIC
  MIC: 0.8 µg/mL (≈ 1.93 µM)
P. vulgaris
  MIC: 1.6 µg/mL (≈ 3.86 µM)
E. cloacae; E. cloacae A9656, Table 1
  MIC: 6.3 µg/mL (≈ 15.2 µM)
E. cloacae; E. cloacae A9657, Table 1
  MIC: 100 µg/mL (≈ 241 µM)
E. cloacae; E. cloacae A9659, Table 1
  MIC: 12.5 µg/mL (≈ 30.2 µM)
Klebsiella sp.
  MIC: 12.5 µg/mL (≈ 30.2 µM)
S. enteritidis
  MIC: 1.6 µg/mL (≈ 3.86 µM)
Pseudomonas sp.
  MIC: 3.1 µg/mL (≈ 7.48 µM)
S. aureus; S. aureus BX-1633 A15097, Table 1, read-out: MIC
  MIC: 12.5 µg/mL (≈ 30.2 µM)
S. aureus; S. aureus BX-1633 A20701, Table 1, read-out: MIC
  MIC: 50 µg/mL (≈ 121 µM)
S. aureus; S. aureus Smith A9537, Table 1, read-out: MIC
  MIC: 1.6 µg/mL (≈ 3.86 µM)
K. pneumoniae
  MIC: 3.1 µg/mL (≈ 7.48 µM)
Pseudomonas aeruginosa; 61 strains of P. aeruginosa, Table 2, read-out: Geometric mean of MIC
  MIC: 31.4 µg/mL (≈ 75.8 µM)
Pseudomonas aeruginosa; GN315, Pa-27 GN315 A21294, Mueller-Hinton agar, Table 2, read-out: MIC
  MIC: 50 µg/mL (≈ 121 µM)
Pseudomonas aeruginosa; GN4925, Pa-45 GN4925, Mueller-Hinton agar, Table 2, read-out: MIC
  MIC: 50 µg/mL (≈ 121 µM)
Pseudomonas aeruginosa; P. aeruginosa A9843, Mueller-Hinton agar, Table 1, read-out: MIC
  MIC: 25 µg/mL (≈ 60.3 µM)
Pseudomonas aeruginosa; P. aeruginosa A9930, Mueller-Hinton agar, Table 1, read-out: MIC
  MIC: 12.5 µg/mL (≈ 30.2 µM)
Pseudomonas aeruginosa; P. aeruginosa A15150, Mueller-Hinton agar, Table 1, read-out: MIC
  MIC: 12.5 µg/mL (≈ 30.2 µM)
Pseudomonas aeruginosa; P. aeruginosa A20229, Mueller-Hinton agar, Table 1, read-out: MIC
  MIC: 12.5 µg/mL (≈ 30.2 µM)
Pseudomonas aeruginosa; P. aeruginosa A20717, Mueller-Hinton agar, Table 1, read-out: MIC
  MIC: 100 µg/mL (≈ 241 µM)
Pseudomonas aeruginosa; Pa-2 VA A9923, Mueller-Hinton agar, Table 2, read-out: MIC
  MIC: 12.5 µg/mL (≈ 30.2 µM)
Pseudomonas aeruginosa; Pa-3 1449VA A9930, Mueller-Hinton agar, Table 2, read-out: MIC
  MIC: 6.3 µg/mL (≈ 15.2 µM)
Pseudomonas aeruginosa; Pa-4 H9 D113 A21295, Mueller-Hinton agar, Table 2, read-out: MIC
  MIC: 25 µg/mL (≈ 60.3 µM)
Pseudomonas aeruginosa; Pa-6 No. 5 A15194, Mueller-Hinton agar, Table 2, read-out: MIC
  MIC: > 100 µg/mL
Pseudomonas aeruginosa; Pa-10 A20479, Mueller-Hinton agar, Table 2, read-out: MIC
  MIC: > 100 µg/mL
Pseudomonas aeruginosa; Pa-12 A20653, Mueller-Hinton agar, Table 2, read-out: MIC
  MIC: 50 µg/mL (≈ 121 µM)
Pseudomonas aeruginosa; Pa-15 A20717, Mueller-Hinton agar, Table 2, read-out: MIC
  MIC: 100 µg/mL (≈ 241 µM)
Pseudomonas aeruginosa; Pa-16 #130 A20718, Mueller-Hinton agar, Table 2, read-out: MIC
  MIC: 6.3 µg/mL (≈ 15.2 µM)
Pseudomonas aeruginosa; Pa-17 H6 D114, Mueller-Hinton agar, Table 2, read-out: MIC
  MIC: 12.5 µg/mL (≈ 30.2 µM)
Pseudomonas aeruginosa; Pa-18 H8 D121, Mueller-Hinton agar, Table 2, read-out: MIC
  MIC: 12.5 µg/mL (≈ 30.2 µM)
Pseudomonas aeruginosa; Pa-19 A20229, Mueller-Hinton agar, Table 2, read-out: MIC
  MIC: 12.5 µg/mL (≈ 30.2 µM)
Pseudomonas aeruginosa; Pa-23 A20741, Mueller-Hinton agar, Table 2, read-out: MIC
  MIC: 50 µg/mL (≈ 121 µM)
Pseudomonas aeruginosa; Pa-24 A20896, Mueller-Hinton agar, Table 2, read-out: MIC
  MIC: 100 µg/mL (≈ 241 µM)
Pseudomonas aeruginosa; Pa-25 A20897, Mueller-Hinton agar, Table 2, read-out: MIC
  MIC: 12.5 µg/mL (≈ 30.2 µM)
Pseudomonas aeruginosa; Pa-26 Ps32, Mueller-Hinton agar, Table 2, read-out: MIC
  MIC: 12.5 µg/mL (≈ 30.2 µM)
Pseudomonas aeruginosa; Pa-28 CPH10527/72, Mueller-Hinton agar, Table 2, read-out: MIC
  MIC: 50 µg/mL (≈ 121 µM)
Pseudomonas aeruginosa; Pa-29 D122, Mueller-Hinton agar, Table 2, read-out: MIC
  MIC: 25 µg/mL (≈ 60.3 µM)
Pseudomonas aeruginosa; Pa-31 A20594, Mueller-Hinton agar, Table 2, read-out: MIC
  MIC: 12.5 µg/mL (≈ 30.2 µM)
Pseudomonas aeruginosa; Pa-33 A20598, Mueller-Hinton agar, Table 2, read-out: MIC
  MIC: 100 µg/mL (≈ 241 µM)
Pseudomonas aeruginosa; Pa-35, Mueller-Hinton agar, Table 2, read-out: MIC
  MIC: 100 µg/mL (≈ 241 µM)
Pseudomonas aeruginosa; Pa-36, Mueller-Hinton agar, Table 2, read-out: MIC
  MIC: 1.6 µg/mL (≈ 3.86 µM)
Pseudomonas aeruginosa; Pa-37 A20130, Mueller-Hinton agar, Table 2, read-out: MIC
  MIC: 50 µg/mL (≈ 121 µM)
Pseudomonas aeruginosa; Pa-38 A20349, Mueller-Hinton agar, Table 2, read-out: MIC
  MIC: 50 µg/mL (≈ 121 µM)
Pseudomonas aeruginosa; Pa-42 A21229, Mueller-Hinton agar, Table 2, read-out: MIC
  MIC: > 100 µg/mL
Pseudomonas aeruginosa; Pa-43 A21233, Mueller-Hinton agar, Table 2, read-out: MIC
  MIC: 50 µg/mL (≈ 121 µM)
Pseudomonas aeruginosa; Pa-44 A21274, Mueller-Hinton agar, Table 2, read-out: MIC
  MIC: 50 µg/mL (≈ 121 µM)
Pseudomonas aeruginosa; Pa-54 A20128, Mueller-Hinton agar, Table 2, read-out: MIC
  MIC: 50 µg/mL (≈ 121 µM)
Pseudomonas aeruginosa; Pa-58 A20557, Mueller-Hinton agar, Table 2, read-out: MIC
  MIC: 50 µg/mL (≈ 121 µM)
Pseudomonas aeruginosa; Pa-59 A20574, Mueller-Hinton agar, Table 2, read-out: MIC
  MIC: 50 µg/mL (≈ 121 µM)
Pseudomonas aeruginosa; Pa-60 A20602, Mueller-Hinton agar, Table 2, read-out: MIC
  MIC: 12.5 µg/mL (≈ 30.2 µM)
Pseudomonas aeruginosa; Pa-61 A20726, Mueller-Hinton agar, Table 2, read-out: MIC
  MIC: 50 µg/mL (≈ 121 µM)
Pseudomonas aeruginosa; Pa-62 A21213, Mueller-Hinton agar, Table 2, read-out: MIC
  MIC: > 100 µg/mL
Pseudomonas aeruginosa; Pa-67 A21509, Mueller-Hinton agar, Table 2, read-out: MIC
  MIC: 50 µg/mL (≈ 121 µM)
Pseudomonas aeruginosa; Pa-68 A21510, Mueller-Hinton agar, Table 2, read-out: MIC
  MIC: 50 µg/mL (≈ 121 µM)
Pseudomonas aeruginosa; Pa-69 A21587, Mueller-Hinton agar, Table 2, read-out: MIC
  MIC: 50 µg/mL (≈ 121 µM)
Pseudomonas aeruginosa; Pa-70 K-Ps102 (CR-102), Mueller-Hinton agar, Table 2, read-out: MIC
  MIC: 25 µg/mL (≈ 60.3 µM)
P. morganii
  MIC: > 100 µg/mL
S. marcescens
  MIC: 6.3 µg/mL (≈ 15.2 µM)
